# Literature values in patent publication US20110104282A1, “New Therapy of Treatment of the Irritable Bowel Syndrome” (Karolinska Institutet Innovations AB, priority 2008, published 2011).
# Conditions: on occasion
smiles,measurement,value
N[C@@H](Cc1c[nH]c2ccccc12)C(=O)O [tryptophan],adverse side effects of high doses,intestinal discomfort and nausea
